According to patent US10064911B2, “Peptides for treating cancer” (The Board of Trustees of the University of Illinois, priority 2015, dated 2018):
“Also recorded” adds a separate entry of the source.

Key:
HMVECs = assay: Thrombin-induced Ca2+ release from ER stores in HMVECs (Fura 2-AM); assay type: cell-based; details: pre-treatment with 5 μg/ml for 20 min prior to thrombin stimulation
Procedure: (FIG. 4A) HMVECs pre-treated with AP-attached IP3R3 peptide or control (AP) peptide were loaded with Fura 2-AM and 340/380 ratio was calculated after stimulation of cells with thrombin (50 nM) in the absence and in the presence of extracellular Ca^2+. Arrow, time of thrombin addition. […] The increase is normalized to control non-treated cells from the same experiment (n=4).
[…] contains EB binding consensus motif, Ser/Thr-x-Ile-Pro (SxIP) (SEQ ID NO: 5). […] The role of the interaction between EB3 and IP3R3 was recently described by Geyer et al., Cell Rep 12(1):79-89; 2015. […] The effects of IP3R3 peptide and taxol were compared in regulating Ca^2+ release.

[1] = tested on: MDA-MB-231 human breast cancer cells; assay: Triple negative breast cancer xenograft: tumor growth and neovascularization; assay type: in vivo, Nude mice; details: for number of vessels outside of the tumor: H&E staining
Text: FIG. 8A plots tumor growth curve in xenograft model; mean is shown; n=8 mice per group. FIG. 8B plots the number of vessels per area counted outside of the tumor; n=25 fields/mouse; N=5 mice; *, p<0.05; **, p<0.01.
The effect of EBIN on growth rate of triple negative (estrogen receptor [ER], progesterone receptor [PR] and human epidermal growth factor receptor-2 [HER-2] are not expressed in this cell line) human breast cancer cells using a xenograft model was investigated. Nude mice (n=8 mice per group) were injected with 3×10^6 MDA-MB-231 human breast cancer cells into the upper left mammary fat pad. All mice developed the tumor by day 13. At that time point, mice were randomized and divided by 5 groups and each group received the treatment. Study was terminated at day 24 when the tumor reached 2000 mm^3 in size. The treatment with control peptide and EBIN was performed daily for 7 days. EBIN and control peptide were delivered via tail vein injection. Control peptide was injected at 5 μM/kg body weight. EBIN was injected at 1 μM/kg and 5 μM/kg body weight.
Treatment with taxol was performed via intraperitoneal injection at 10 μM/kg body weight for 4 days. Tumor size was measured 3 times a week.
To correlate the effect of EBIN treatment with tumor neovascularization, tumor tissue was collected, fixed and stained with hematoxylin and eosin (H&E). Number of […] outside of the tumor mass was scored and normalized per area.

[2] = tested on: blood vessels ingrowth into matrigel plugs; assay: In vivo ectopic matrigel plug angiogenesis; design: species or system mice; details: for number of vessels / vessel formation in matrigel plugs: matrigel with heparin and VEGF, plugs removed at 96 hours, HE staining
Procedure: (§1) Group 1 was treated with control peptide and group 3 was treated with Myr-EBIN at 0, 36 and 60 hrs; group 2 received only 36 and 60 hour treatment. […] Scale bar, 200 μm.
EBIN effect on blood vessels in growth in an in vivo model of ectopic matrige angiogenesis was also investigated. Blood vessel in growth matrigel was pre-mixed with heparin and VEGF but not with endothelial cells, and i.p. injected into low abdomen of mice. There were two 400 μL plugs per mouse. […] These vessels were functional and perfused with blood that is apparent from the presence of red blood cells inside the vessels. In addition, mice were treated with EBIN at the time of matrigel injection (FIG. 7C,2; Group 2) or 36 hrs after matrigel (FIG. 7C,3; Group 3). Matrigel plugs were removed at 96 hours, fixed and stained with HE to assess the vessel formation.

[3] = tested on: human VEGF-induced vascular leakage; assay: VEGF-induced subcutaneous vascular leakage of albumin-bound Evans Blue; assay type: in vivo, Balb/cJ mice; details: pretreated 1 μM/kg; human VEGF 50 ng/kg intradermal; measured at 620 nm
Procedure: A study investigating whether injection of the EBIN prevented vascular endothelial growth factor (VEGF)-induced microvascular leakage was carried out. Balb/cJ mice were pretreated with the EBIN peptide (1 μM/kg) or a control peptide (2T→A mutation) and then human VEGF (50 ng/kg body weights) was intradermally injected to induce vascular leakage of albumin-bound Evans Blue (see FIG. 6A). In addition, the formamide-extracted Evans Blue was quantified spectrophotometically at 620 nm and corrected for hemoglobin (740 nm) and skin weight (see FIG. 6B).

[4] = tested on: human umbilical vein endothelial cells; assay: In vitro tubulogenesis in 2D matrigel model; assay type: cell-based; details: 1 μM; assessed 16 hours after plating on matrigel
Procedure: as §1
The effect of EBIN on in vitro tubulogenesis and in vivo angiogenesis was investigated using matrigel models. A single cell suspension of human umbilical vein endothelial cells was plated above matrigel-coated wells in the presence of 1 μM EBIN or control peptide; tube formation was assessed 16 hours later.

endothelial cell = assay type: cell-based; details: data not shown
[5] = Acute toxicity testing in vivo (eye); design: species or system C57BL/6 mice
Procedure: Representative images of Fundus Fluorescein Angiography F and corresponding Optical Coherence Tomography (FIG. 12B) at day 8 of intravitreal treatment with EBIN (1 μg/eye).
A short term study is designed to assess safety of administration in vivo. C57BL/6 mice (n=10, 5 mice per group/treatment route) are randomized and divided into two groups. The first group is treated with EBIN in the right eye via eye drops delivered twice daily, 5 μg per eye (10 μl) and, the second group is treated with intravitreal injection of EBIN in the right eye at the maximum dose, 1 μg per eye (2 μl) on day one. The intravitreal injection is performed under ketamine/xylazine (100 mg/5 mg/kg) anesthesia. Both groups are monitored daily for general health including body weight as well as any eye abnormalities including opacity, exophthalmia enophthalmia, conjunctivitis, abnormal secretions or crusting, and corneal ulcers for a period of 8 days. Animals are subsequently subjected to fluorescein angiography and OCT imaging.

[6] = tested on: laser-induced choroidal neovascularization (CNV); details: 1 μg/eye single intravitreal injection; day 15; versus control peptide
Procedure: Quantification of the area of fluorescein leakage (FIG. 11D) and lesion (FIG. 11E) using images shown in (FIG. 11A) and (FIG. 11C); n=6-9 mice per group; **, p<0.01. […] Comparison between groups were performed using ANOVA.
To assess the barrier-protective and anti-angiogenic activities of EBIN, EBIN is tested in murine models of CNV. In addition to treatment with EBIN, LEAF™ antibody (a monoclonal rat antibody against mouse VEGF-A) and control peptide (Myr-FAEIPTI), were used as positive and negative experimental controls, respectfully.
Mice were anesthetized with a mixture of ketamine/xylazine (100 mg/5 mg/kg IP) and their pupils were dilated with a topical application of Cyclomydril (Alcon Laboratories, Fort Worth, Tex.). The fundus was viewed with an imaging camera, and laser photocoagulation was induced using the image-guided laser system (Micron IV, Phoenix Research Laboratories, Pleasanton, Calif.). Four laser burns at equal distance from the optic nerve were induced one by one in right eye by a green Argon laser pulse with a wavelength of 532 nm, a fixed diameter of 50 μm, duration of 70 ms, and power levels from 210-250 mW. Appearance of bubble or a small subretinal hemorrhage (diameter <1 mm) at the laser spot serves to indicate rupture of the Bruch's membrane and as confirmation of laser-induced CNV. This procedure was performed only on the right eye of each mouse. […]

Row | Compound | release of Ca2+ from ER in response to thrombin (HMVECs) | number of vessels outside of the tumor ([1]; 10 μM/kg intraperitoneal for 4 days) | tumor growth ([1]; intraperitoneal injection at 10 μM/kg body weight for 4 days) | number of vessels / vessel formation in matrigel plugs [2] | subcutaneous vascular leak of albumin-bound Evans Blue [3] | tube formation (tubulogenesis) [4] | effect of post-treatment versus treatment on vessel ingrowth ([2]; treatment started 36 hrs after matrigel versus at the time of matrigel injection) | endothelial cell death or cell cycle arrest (endothelial cell) | number of vessels outside of the tumor ([1]; 5 μM/kg, tail vein) | tumor growth rate ([1]; tail vein injection, 1 μM/kg body weight daily for 7 days) | tumor size ([1]; tail vein injection, 5 μM/kg body weight daily for 7 days) | toxicity ([5]; eye drops 5 μg per eye twice daily or intravitreal 1 μg per eye, 8 days, with or without CNV induction) | crystals/precipitates in the eye ([5]; intravitreal 1 μg/eye, day 8) | changes in retinal vasculature, retinal pigment epithelium, choroid, sclera ([5]; intravitreal 1 μg/eye, day 8, angiography and OCT) | vascular leakage (area of fluorescein leakage) [6]
1 | CC(=O)O[C@H]1C(=O)[C@@]2(C)[C@H]([C@H](OC(=O)c3ccccc3)[C@]3(O)C[C@H](OC(=O)[C@H](O)[C@@H](NC(=O)c4ccccc4)c4ccccc4)C(C)=C1C3(C)C)[C@]1(OC(C)=O)CO[C@@H]1C[C@@H]2O [taxol, reference compound] | inhibits release of Ca^2+ from ER to the same extent as IP3R3 peptide | significantly reduced | significant delay in the tumor growth |  |  |  |  |  |  |  |  |  |  |  | 
2 | FAEIPTI [reference compound] |  |  |  | newly formed blood vessels grew into the matrigel |  |  |  |  |  |  |  |  |  |  | 
3 | FTEIPTI [EBIN] |  |  |  | markedly reduced | significantly inhibited subcutaneous vascular leak | significantly abolished formation of tubes; also recorded: inhibited tubulogenesis | post-treatment was as effective as a treatment | did not induce endothelial cell death or cell cycle arrest | significantly reduced; also recorded: superior effect as compared to taxol | developed the tumor at the same rate as untreated mice | reduction in the tumor size; also recorded: significantly smaller as compared to control untreated group | No toxicity was observed | forms small crystals/precipitates inside of various humor | no visible changes | significantly reduced
